The text below walks through data of PMC6145916, “Interaction of mitochondrial fission factor with dynamin related protein 1 governs physiological mitochondrial function in vivo” (Scientific Reports, 2018).

Where no end group is shown, it is not given here.

In one data set the test system is Wild-type MEF cells. The settings on record: 4 µM P259, 15 minutes, mito-dendra2 photoconversion; 9 movies over two independent experiments.
The subject of another data set is wild-type mice. As to the kind of experiment: Open-field activity chamber behavior. Particulars: 3 mg/Kg/day. Format: in vivo, mouse. The source says: (a) Quantification of mitochondrial Drp1 content relative to ALDH2 (a mitochondrial matrix enzyme) in the mitochondrial fraction isolated from total brain lysate of wild-type mice (Western blot shown in Fig. S3B) (n = 4 mice). (b) ATP content in brain tissue of wild-type mice (n = 4 mice, 2 replicates). (c) Representative transmission electron microscopy images of the striatum from wild-type mice. […] The first principal component represents 42% of the variation. (f) Local linear embedding dimensionality reduction and visualization of all behaviors collected weekly from TAT- (black) or P259- (purple) treated WT and TAT- (white) treated R6/2 mice over the course of 8 weeks. […] All behavior and survival tests were conducted by an experienced observer who was blinded to the treatment groups. Data are mean ± s.e.
Five-week old R6/2 HD mice and their wild-type littermates (a total of 60 mice) were implanted subcutaneously with a 28-d Alzet osmotic pump with either P259-TAT or TAT control peptide (15 mice per group) to be delivered continuously at a rate of 3 mg/Kg/day, as previously described. All mice were implanted twice for a total of an 8-week treatment. 20 of the WT mice were implanted 3 times for a total of a 12-week treatment at 3 mg/Kg/day. All the experiments were in accordance with protocols approved by the Institutional Animal Care and Use Committee of Stanford University and were performed based on the National Institutes of Health Guide for the Care and Use of Laboratory Animals. All methods were carried out in accordance with the relevant guidelines and regulations. […]
Survival and behavioral mice studies […]
All behavior and […]
survival tests were conducted by an experienced ob server who was blinded to the treatment groups.
Behavioral tests were administered weekly in an open-field activity arena (Med Associate s Inc, St.
Albans, VT. Model ENV-515) equipped with three planes of infrared detectors within a sound-proof chamber (Med Associates Inc., St. Albans, VT. MED-017-027), as described previously.12 Each mouse was placed in a corner of the chamber and was tracked for a period of 15 minutes.
The following activities were recorded: digging duration, grooming duration, climbing duration, rearing duration, seizure frequency, average velocity, active behaviors, total distance moved, jump counts/time, ambulatory counts/distance/time, latency towards center, stereotypic time/counts, resting time, vertical counts/time, and zone entries (center/periphery).
Dimensionality reduction of mouse behavior data
The collection of weekly behavior parameters for wild-type mice treated with P259 or the TAT control was assembled into a vector with a total of 180 behavior parameters per mouse. The top 20% of parameters contributing to treatment classification were filtered by using a combination of the ANOVA F- and the mutual information scores for each behavior. The filtered dataset was normalized and principal component analysis was performed using the Python scikit-learn package. An eigenvector was extracted to determine the contribution of each behavior to the first […]
treated wild-type mice and control-treated R6/2 mice during the eight-week treatment were assembled into a single vector for each mouse. The dataset was normalized and local linear embedding from the Python scikit-learn package was used to reduce the dimensionality of and visualize the behavior parameters.

For a further data set, the system named is primary cortical neurons. As to the kind of experiment: Mitochondrial motility, primary cortical neurons. Particulars: 4 µM P259, one hour. In kind it is cell-based, rat. The protocol: Bottom, quantification of the form factor (degree of branching) and aspect ratio (major/minor axis length). At least 10,000 mitochondrial fragments were analyzed for each condition. Mitochondrial reactive oxygen species production (MitoSox Red) (b) and membrane potential (TMRM) (c) after overnight treatment with indicated concentrations of peptide (n = 3, with 3 replicates). […] Overlay of live microscopy imaging at time 0 (green) and 150 (red) seconds. […] An estimation of the % mobile mitochondria from the Pearson coefficient of each set of images. Data are mean ± s.e.
To quantify mitochondrial motility, the TMRM images were colored green and red at times 0 and 150 seconds, respectively. Mitochondrial motility corresponded to decreased co-localization of the two colors (Fig. 3d). […] Therefore, Mff-mediated anchoring of Drp1 on the outer mitochondrial membrane was necessary for mitochondrial motility in primary cortical neurons.
DMI6000B inverted microscope. All mitochondria were imaged with a GFP fi lter. Then, green […]
filter every 30 seconds for 5 minutes. The initial image was subtracted from each subsequent image to track signal change over time. […]
GFP filter (Keyence). […] The GFP and MitoSox signals were measured in a ring around each nucleus. Average MitoSox levels were quantified in […]
To quantify mitochondrial motility, the images at time 0 and 150 seconds w ere overlaid. […]

[1] abbreviates: 8-week treatment, WT mice, n = 10 mice.

“YGRKKRRQRRRGSGIIQLPEIVVV-NH2 (C-terminus assumed) [P259]”: the “rate of mitochondrial fusion” value with Wild-type MEF cells is recorded as “did not increase the rate of mitochondrial fusion”. Moreover, in the data set on wild-type mice (setting [1]), the active mouse behaviors entry is “less active”; the jumping and climbing entry is “jumped and climbed less frequently”; the total distance moved result is listed as “travelled for a shorter distance”. Further, in the data set with wild-type mice (12 weeks, WT mice, vs TAT), the “behavior profile, principal component analysis (top 20% of behaviors)” value is “successfully separated the behavior profile of P259- and TAT control-treated mice”. The “jump counts/time, periphery-to-center transition, movement counts, stereotypic time” value in the data set with wild-type mice (WT mice, tested weekly, 12 weeks, vs TAT-treated mice) is on record as “performed worse than TAT-treated mice”. For the same substance, in the data set on wild-type mice (weekly over 8 weeks, P259-treated WT vs TAT-treated WT and TAT-treated R6/2 mice), the “aggregate behavior score (local linear embedding)” value was “intermediate aggregate behavior score between WT- and R6/2 control-treated mice”. For the same substance, the “% mobile mitochondria” value with primary cortical neurons (TMRM images 0 vs 150 sec, estimated from Pearson coefficient, basal approximately 37%, n = 4 control and 6 P259) was ~ 22%. Besides, the “decline in the proportion of mobile mitochondria” value in the data set on primary cortical neurons (vs no peptide control) was determined as 40%.
